Reference: patent publication US7855198B2, “Benzamide derivative or salt thereof” (Astellas Pharma Inc., priority 2003, dated 2010)
Structures can show the parent of a compound that is named as a salt.

Columns and labels:
human VR1 = target: T1, human VR1 (Homo sapiens, UniProt Q8NER1); test: Receptor binding assay ([3H]RTX) using membranes of VR1 stably expressing cell; details: [3H]RTX binding, VR1/HEK293 membrane preparation
T1 construct: A full-length cDNA encoding human VR1 was obtained by the following method; expressed in transfected cells; membrane preparation
T1 sequence (Q8NER1 whole entry): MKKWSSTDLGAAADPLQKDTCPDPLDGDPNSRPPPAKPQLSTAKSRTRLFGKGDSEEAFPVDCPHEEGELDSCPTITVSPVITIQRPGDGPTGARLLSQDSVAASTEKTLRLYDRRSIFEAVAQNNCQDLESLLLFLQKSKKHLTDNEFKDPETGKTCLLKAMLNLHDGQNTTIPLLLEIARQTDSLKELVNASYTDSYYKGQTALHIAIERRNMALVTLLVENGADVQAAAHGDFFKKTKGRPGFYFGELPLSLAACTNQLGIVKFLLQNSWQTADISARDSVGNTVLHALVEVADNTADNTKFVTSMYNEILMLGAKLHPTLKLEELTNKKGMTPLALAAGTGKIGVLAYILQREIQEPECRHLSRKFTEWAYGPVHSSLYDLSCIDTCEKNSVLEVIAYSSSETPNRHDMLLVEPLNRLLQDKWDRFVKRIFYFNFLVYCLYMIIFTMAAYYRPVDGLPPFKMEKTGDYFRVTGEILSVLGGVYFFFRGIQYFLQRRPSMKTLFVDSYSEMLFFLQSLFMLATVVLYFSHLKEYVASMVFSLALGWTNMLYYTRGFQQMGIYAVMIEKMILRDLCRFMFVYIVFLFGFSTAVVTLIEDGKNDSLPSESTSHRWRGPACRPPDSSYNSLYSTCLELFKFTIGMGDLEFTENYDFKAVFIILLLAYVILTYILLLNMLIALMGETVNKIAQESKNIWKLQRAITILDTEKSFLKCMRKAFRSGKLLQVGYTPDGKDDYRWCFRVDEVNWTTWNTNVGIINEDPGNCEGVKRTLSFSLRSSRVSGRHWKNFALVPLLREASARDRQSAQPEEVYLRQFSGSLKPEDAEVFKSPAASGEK
Protocol: A full-length cDNA encoding human VR1 was obtained by the following method. First, human brain mRNA was reverse transcribed using a reverse transcriptase to synthesize a first strand cDNA. Then, using the first strand cDNA as a template, PCR according to Hot Start method was carried out using Taq DNA polymerase. The above PCR was carried out by first conducting thermal denaturation of 98° C. (1 min) and then repeating a cycle consisting of 98° C. (15 sec)/63° C. (30 sec)/72° C. (3 min) 35 times using an oligonucleotide consisting of a base sequence of 424th to 443rd in a known human VR1 cDNA sequence (Genbank AJ277028.1) as a sense primer and an oligonucleotide consisting of a complimentary sequence of a base sequence of 3082nd to 3100th as an antisense primer.
An amplified DNA fraction was cloned using pCR-XL-TOPO vector (TOPO XL PCR Cloning Kit; Invitrogen, USA). The resulting plasmid DNA was digested with a restriction enzyme EcoRI to isolate human VR1-cDNA alone, which was then integrated into pcDNA3.1(+) plasmid (Invitrogen, USA). The above genetic engineering operations were carried out in accordance with known methods (Sambrook, J. et al, Molecular Cloning—A Laboratory Manual”, Cold Spring Harbor Laboratory Press, NY, 2001) and directions attached to individual reagents.
Next, the resulting pcDNA3.1-VR1 was transduced into HEK293 cells or CHO-KL cells. VR1/HEK293 cells were selected using a DMEM medium (Invitrogen, USA) containing 10% FBS, 100 μg/ml streptomycin, 100 U/ml penicillin, and 400 μg/ml G418 and VR1/CHO cells were selected using a HumF12 medium (Invitrogen, USA) containing 10% FBS, 100 μg/ml streptomycin, 100 U/ml penicillin, and 400 μg/ml G418 to prepare receptor stably expressing cell lines. The receptor stably expressing cells were subcultured in respective above media.
After the above VR1/HEK293 cells were cultured in glass dishes in a large quantity, the medium was removed and cells were scraped up with adding ice-cooled PBS. They were centrifuged at 1,000 rpm at 4° C. for 10 minutes. After a buffer for homogenization (25 mM Tris-HCl, 220 mM sucrose, pH 7.4) was added to the resulting sediment and the whole was homogenized, it was centrifuged at 2,200 rpm at 4° C. for 10 minutes. The resulting supernatant was centrifuged at 30,000×g at 4° C. for 20 minutes and an operation of adding 25 mM Tris-HCl, pH 7.4 to the resulting sediment and centrifuging it at 30,000×g at 4° C. for 20 minutes was repeated twice. The resulting sediment was suspended in 25 mM Tris-HCl, pH 7.4 and protein concentration was determined using a protein assay staining solution (Bio Rad, USA). The membrane preparation thus prepared was stored at −80° C.
The test was carried out by modifying the method of [Neurosci. 57: 747-757 (1993)]. Assay buffer (25 mM Tris-HCl, 0.025% BSA, pH 7.4) (147 μl), 3 μl of a test compound, 50 μl of [^3H]RTX (about 50,000 dpm; Perkin-Elmer Life Science, USA), 100 μl of the above membrane preparation (protein amount of about 25 μg) were mixed and incubated at 37° C. for 60 minutes, and then the whole was incubated on ice for 10 minutes. An ice-cooled […] (AGP; Sigma) was added in an amount of 200 μg/50 μl, followed by further 5 minutes of incubation. The completion of the incubation was effected by rapid filtration of the mixture using a GF/B filter (Perkin-Elmer Life Science, USA). After the filter was washed with ice-cooled 25 mM Tris-HCl buffer (pH 7.4) seven times, radioactivity of the filter was measured by means of a liquid scintillation counter (2500TR; Packard, USA). With regard to a specific binding, of the total binding amount of [^3H]RTX and membrane fractions of VR1 receptor stably expressing cell, a portion substituted by 1 μM RTX was regarded as a specific binding derived from VR1 receptor. Evaluation of the test compound was conducted as follows. […]

[1] = tested on: paw-licking action induced by capsaicin; test: Capsaicin test (paw-licking action); format: in vivo; details: mouse, oral administration 30 mg/kg, 45 minutes before capsaicin; read-out: Inhibition ratio (%)
Protocol: The test was carried out in accordance with [Neuropharmacol. 31: 1279-1285 (1992)]. When 1.6 μg of capsaicin was administered to the planta of a mouse (ddY, male, 4- to 5-weeks old), a paw-licking action is induced. By measuring a time of expressing paw-licking action during 5 minutes after the administration, an inhibitory effect on pain behavior was evaluated. A test compound was administered intraperitoneally 30 minutes before the capsaicin administration or administered orally 45 minutes before the capsaicin administration. Evaluation of the test compound was conducted by determining each inhibition ratio in a test compound-administered group when the time of expressing paw-licking action in a vehicle-administered group was regarded as 100%.

SMILES	IC50 (human VR1) [nM]	inhibition in vivo at 30 mg/kg [1] [%]
O=C(Nc1ccc2scnc2c1)c1ccc(-c2ccccc2)c(CN2CCOCC2)c1 [Example 21]	≤ 1000	–
CCN(Cc1cc(C(=O)Nc2ccc3c(c2)N(C)C(=O)CC3)ccc1-c1ccccc1)C1CCOCC1 [Example 170]	≤ 1000	68
CC1CCN(C2CCCN(Cc3cc(C(=O)Nc4ccc5c(c4)NC(=O)C(C)O5)ccc3-c3ccccc3)C2)CC1 (stereo not drawn) [Example 122]	≤ 1000	–
CN(C)c1ccc(NC(=O)c2ccc(-c3ccccc3)c(CN3CCCCC3)c2)cn1 [Example 71]	≤ 1000	–
CC1(C)C(=O)Nc2cc(NC(=O)c3ccc(-c4ccccc4)c(CN4CCCCC4)c3)ccc21 [Example 87]	≤ 1000	67
Cn1c(=O)ccc2ccc(NC(=O)c3ccc(-c4ccccc4)c(CN4CCCCC4)c3)cc21 [Example 129]	≤ 1000	91
O=C(Nc1ccc2scnc2c1)c1ccc(-c2ccccc2)c(CN2CCCCC2)c1 [Example 7]	≤ 1000	–
CN1C(=O)CCc2ccc(NC(=O)c3ccc(-c4cccs4)c(CN4CCCCC4)c3)cc21 [Example 163]	≤ 1000	–
COc1cccc(NC(=O)c2ccc(-c3ccccc3)c(CN3CCCCC3)c2)c1 [Example 1, N-(3-methoxyphenyl)-2-(piperidin-1-ylmethyl)biphenyl-4-carboxamide hydrochloride]	≤ 1000	–
CCN(Cc1cc(C(=O)Nc2ccc3c(c2)NC(=O)C(C)O3)ccc1-c1ccccc1)CC(C)(C)O (stereo not drawn) [Example 123]	≤ 1000	69
O=C1CCc2ccc(NC(=O)c3ccc(-c4ccccc4)c(CN4CCCCC4)c3)cc2N1 [Example 60]	≤ 1000	–
CN1C(=O)CCc2ccc(NC(=O)c3ccc(-c4ccccc4)c(CN4CCCCC4)c3)cc21 [Example 78]	≤ 1000	76
CC(C)CN(CCN1CCCCC1)Cc1cc(C(=O)Nc2ccc3c(c2)NC(=O)C(C)O3)ccc1-c1ccccc1 (stereo not drawn) [Example 195]	≤ 1000	–
CCN(Cc1cc(C(=O)Nc2ccc3c(c2)N(C)C(=O)CC3)ccc1-c1ccccc1)C1CCSCC1 [Example 181]	≤ 1000	–
Cc1cc2ccc(NC(=O)c3ccc(-c4ccccc4)c(CN4CCCCC4)c3)cc2[nH]c1=O [Example 130]	≤ 1000	62
CC1Oc2ccc(NC(=O)c3ccc(-c4ccccc4)c(CN4CCCCC4)c3)cc2N(C)C1=O (stereo not drawn) [Example 85]	≤ 1000	86
O=C(Nc1ccc2scnc2c1)c1ccc(-c2ccccc2)c(CN2CCC(F)CC2)c1 [Example 110]	≤ 1000	–
CC(C)N(Cc1cc(C(=O)Nc2ccc3scnc3c2)ccc1-c1ccccc1)C1CCCCC1 [Example 33]	≤ 1000	66
CCN(CC)Cc1cc(C(=O)Nc2cc3c(c(C(F)(F)F)c2)CC(=O)N3)ccc1-c1ccccc1 [Example 143]	≤ 1000	–
